# Test results from PMC10257182, “Discovery of senolytics using machine learning” (Nature Communications, 2023).
# “And” between values parts separate entries of the source, which are not always exact repeats. Equal entries are not always repeated.
# Key:
# Type in all cases: cell-based, human
# [1] = system: senescent IMR90 ER:RAS cells; assay: Cell survival assay using crystal violet staining, OIS, senescent cells; design: % Cell Survival: concentration or dose not given beside the values
# Experimental: (§1) Equal numbers of control and senescent cells were plated at high density on multiwell plates just before senolytic treatment addition. After treatment, cells were fixed on 0.5% glutaraldehyde (Sigma) and then dried at RT overnight. Then, wells were stained with crystal violet solution for 3 h, washed and dried. Once they were completely dry, the plates were scanned for records. Quantification was performed extracting the staining with 1% acetic acid and measuring the final solution by absorbance at 595 nm.
# [2] = system: control IMR90 ER:STOP cells; assay: Cell survival assay using crystal violet staining, OIS, control cells; design: % Cell Survival: concentration or dose not given beside the values
# Experimental: as §1
# control A549 cells = assay: Cell survival assay using crystal violet staining, TIS, control cells; conditions: Control (no etoposide) cells; Control DMSO = 100; single replicates (SUP FIG 9E)
# Experimental: Equal numbers of control and senescent cells were plated at high density on multiwell plates just before senolytic treatment addition. After treatment, cells were fixed on 0.5% glutaraldehyde (Sigma) and then dried at RT overnight. Then, wells were stained with crystal violet solution for 3 h, washed and dried. Once they were completely dry, the plates were scanned for records. Quantification was performed extracting the staining with 1% acetic acid and measuring the final solution by absorbance at 595 nm. […]
# cells per condition is indicated. (d) Cell survival assay measuring the senolytic effect in lung cancer senescent cells. The panels show a representative crystal violet staining of tissue culture dishes of confluent A549 cells treated with 100 μM etoposide and control A549 cells, all treated with 10 nM oleandrin, ouabain and periplocin, and DMSO as vehicle control for 72 hours as indicated. (e) Graph representing the cell survival by quantification of the crystal violet staining of the experiment described in (d), as described in Methods. Data represented as individual datapoints, and bars and error bars representing the mean ± SEM of 14 independent experiments. Statistical analysis was performed using a one-way ANOVA (Tukey’s test) for multiple comparisons. […]
# Scale bars represent 100 μm. ns = not significant, * = p < 0.05, ** = p < 0.01, *** = p < 0.001, **** = p < 0.0001. Source data are provided as a Source Data file.
# [3] = system: caspase 3/7 activity in senescent IMR90 ER:RAS cells; assay: Caspase 3/7 activity assay; design: Caspase 3/7 activity time course (SUP FIG 9F) / Caspase 3/7 activity time course (SUP FIG 9F exp not shown): unit not given here; conditions: for Caspase 3/7 activity time course (SUP FIG 9F) / Caspase 3/7 activity time course (SUP FIG 9F exp not shown): ER:RAS cells; for Caspase 3/7 activity time course (SUP FIG 9F exp not shown): second experiment, data not shown
# Experimental: IMR90 ER:STOP and IMR90 ER:RAS cells were cultured with 100 nM 4-OHT for 5 days. Cell were then plated in a multiwell plate at high density. Once cells were attached, Caspase 3/7 probe (C10423 Invitrogen) and senolytic drugs, oleandrin, ouabain and periplocin at 10 nM, were added to the media and cultured for 36 h. Time lapse imaging was recorded every hour on a Leica AF6500 microscope (10x). ImageJ 1.53k was used for positive cell counting.
# [4] = system: proliferating IMR90 cells; assay: BrdU incorporation proliferation assay
# Experimental: 5-bromo-2′-deoxyuridine (BrdU) incorporation was used to measure the number of cells actively replicating DNA. Cells were incubated with 10 μM BrdU (85811, Sigma) for 18 h. After that, cells were fixed with 4% Paraformaldehyde, permeabilised, blocked and then stained for immunofluorescence using BrdU primary antibody (555627 BD Pharmigen), Alexa fluor secondary for detection, and DAPI staining for cell counting. Acquisition was done with a Nikon TI2 microscope and analysis was performed with ImageJ for cell counting.
# [5] = system: Na+/K+ ATPase pump (intracellular K+) in senescent IMR90 ER:RAS cells; assay: Intracellular K+ determination with Asante staining, OIS; conditions: FIG 4E, ER:RAS cells
# Experimental: (§2) Cells were cultured for control and senescent phenotype and then treated with the senolytics oleandrin, ouabain and periplocin at 10 nM for 72 h. Asante (Asante Potassium Green-2 AM, abcam ab142806) was added to the culture 30 min before fixation, following manufacturer instructions. DAPI staining was done before image acquisition on Nikon TI2 microscope (20x). Image analysis was performed using ImageJ 1.53k for setting intensity threshold and measuring mean intensity.
# [6] = system: Na+/K+ ATPase pump (intracellular K+) in IMR90 cells at passage 27; assay: Intracellular K+ determination with Asante staining, replicative senescence; conditions: Replicative Senescence cells
# Experimental: as §2
# [7] = system: NOXA mRNA in senescent IMR90 ER:RAS cells; assay: NOXA mRNA expression by RT-qPCR, OIS; conditions: ER:RAS cells, 10 nM; relative to ER:STOP DMSO = 1; individual replicate values
# Experimental: (§3) Total RNA was isolated using RNAeasy kit (Quiagen). cDNA was generated with reverse transcriptase iScript (Bio-Rad). RT-qPCR was performed using SYBR Select Master Mix (Applied Biosystems) in OneStepPlus detection system (Applied Biosystems). Oligos for amplification were: NOXA Fw-[…] and Rv-[…]; b-ACTIN Fw-[…] and Rv-[…]; IL1a Fw-[…] and Rv- […]; IL1b Fw-[…] and Rv- […]; IL8 Fw-[…] and Rv-[…]; p16 Fw-CGGTCGGAGGCCGATCCAG and Rv- […]; p21Fw-[…] and Rv- […].
# [8] = system: NOXA mRNA in IMR90 cells at passage 27; assay: NOXA mRNA expression by RT-qPCR, replicative senescence; conditions: 10 nM
# Experimental: as §3
# [9] = system: A549 cells treated with 100 μM etoposide; assay: Cell survival assay using crystal violet staining, TIS, senescent cells; conditions: fraction of Control DMSO = 1, n 15
smiles,measurement,setting,value
"C[C@@H]1O[C@@H](O[C@H]2C[C@@H](O)[C@]3(CO)[C@H]4[C@H](O)C[C@]5(C)[C@@H](C6=CC(=O)OC6)CC[C@]5(O)[C@@H]4CC[C@]3(O)C2)[C@H](O)[C@H](O)[C@H]1O [Ouabain, ouabain, reference compound]","cytotoxic activity / cellular content (crystal violet), in words",[1],no cytotoxic activity
same,% Cell Survival,"[1]; FIG 4B, ER:RAS cells, individual replicate values, ER:STOP DMSO = 100",99% and 102.3% and 88.5% and 93% and 111.6% and 79.7% and 87.5% and 77.4% and 104.8% and 84.4% and 78.3% and 72%
same,"Mean (cell survival, Tukey test details)","[1]; FIG 4B, ER:RAS cells, mean of n=12 as fraction of STOP DMSO = 1",0.8988
same,"cytotoxic activity (crystal violet), in words",[2],no cytotoxic activity
same,% Cell Survival,"[2]; FIG 4B, ER:STOP cells, individual replicate values, ER:STOP DMSO = 100",100.7% and 91.1% and 79.5% and 88.8% and 108.2% and 92.7% and 95.3% and 93.9% and 97.9% and 80.1% and 99.8% and 95%
same,"Mean (cell survival, Tukey test details)","[2]; FIG 4B, ER:STOP cells, mean of n=12 as fraction of STOP DMSO = 1",0.9358
same,% Cell Survival,control A549 cells,87.7% and 109.8% and 97.7% and 103.7% and 127.7% and 98.4% and 119.9% and 122.1% and 126.3% and 124.6% and 125% and 96.4%
same,Caspase 3/7 activity time course (SUP FIG 9F),[3]; 01:00:00 hours,1.9
same,Caspase 3/7 activity time course (SUP FIG 9F exp not shown),[3]; 01:00:00 hours,0.1
same,Caspase 3/7 activity time course (SUP FIG 9F),[3]; 05:00:00 hours,1.9
same,Caspase 3/7 activity time course (SUP FIG 9F exp not shown),[3]; 05:00:00 hours,0.95
same,Caspase 3/7 activity time course (SUP FIG 9F),[3]; 10:00:00 hours,2.6
same,Caspase 3/7 activity time course (SUP FIG 9F exp not shown),[3]; 10:00:00 hours,1.45
same,Caspase 3/7 activity time course (SUP FIG 9F),[3]; 15:00:00 hours,2.6
same,Caspase 3/7 activity time course (SUP FIG 9F exp not shown),[3]; 15:00:00 hours,1.55
same,Caspase 3/7 activity time course (SUP FIG 9F),[3]; 20:00:00 hours,3
same,Caspase 3/7 activity time course (SUP FIG 9F exp not shown),[3]; 20:00:00 hours,2.7
same,Caspase 3/7 activity time course (SUP FIG 9F),"[3]; 1 day, 1:00:00",4
same,Caspase 3/7 activity time course (SUP FIG 9F exp not shown),"[3]; 1 day, 1:00:00",4.6
same,Caspase 3/7 activity time course (SUP FIG 9F),"[3]; 1 day, 6:00:00",3.9
same,Caspase 3/7 activity time course (SUP FIG 9F exp not shown),"[3]; 1 day, 6:00:00",7.55
same,Caspase 3/7 activity time course (SUP FIG 9F),"[3]; 1 day, 11:00:00",3.9
same,Caspase 3/7 activity time course (SUP FIG 9F exp not shown),"[3]; 1 day, 11:00:00",8.25
same,Casp3/7 activity (percentage of green fluorescent cells),"[3]; ER:RAS, 100 nM 4OHT, 10 nM compound, 35 h",6.4%
same,"% BrdU positive cells, mean (Test details, Mean 2)","[4]; IMR90 cells, n 4",73.84%
same,% BrdU positive cells,"[4]; IMR90 cells, single replicates (SUP FIG 9G)",69.37% and 73.68% and 73.67% and 78.62%
same,"proliferation by BrdU incorporation, in words","[4]; proliferating IMR90 cells, 10 nM",none of the cardiac glycosides induced unwanted changes in proliferation
same,Asante Mean intensity,[5]; individual replicate values,73.6 and 91 and 73.5 and 72.9 and 82 and 66.9
same,"Mean (Asante Mean intensity, Tukey test details)",[5]; mean of n=7,76.21
same,Asante Mean intensity,[6]; individual replicate values,151.8 and 154.5 and 152.7 and 153 and 150.8 and 153.1
same,"Asante Mean intensity, group mean (Test details, Mean 2)",[6]; mean of n=6,152.7
same,NOXA mRNA expression,[7],4.99 and 3.07 and 6.94 and 6.96
same,"NOXA mRNA expression, group mean (Test details, Mean 2)","[8]; Replicative Senescence (RS) cells, mean of n=3",15.44
same,NOXA mRNA expression,"[8]; Replicative Senescence cells, relative to Control DMSO = 1, individual replicate values",23.42 and 22.01 and 0.88
same,"Cell survival, mean (Test details, Mean 2)",[9],0.9058
